Laboratory results: paper PMC8878317, “Chemogenomics identifies acetyl-coenzyme A synthetase as a target for malaria treatment and prevention” (Cell Chemical Biology, 2022)

Test system: P. falciparum 3D7 parasites
Experiment: Metabolomic profiling of compound-treated parasites (LC/MS);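 as to Metabolite data: 3-Phosphoglycerate: Log2 fold change in abundance versus untreated parasite controls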;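 as to Metabolite data: Myo-Inositol: Log2 fold change in abundance versus untreated parasite controls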;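 as to Metabolite data: N-Carbamoyl-L-Aspartate: Log2 fold change in abundance versus untreated parasite controls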;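 as to Metabolite data: Nicotinate: Log2 fold change in abundance versus untreated parasite controls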
Assay type: cell-based
Set-up: Metabolite data: dTMP / Metabolite data: GMP / Metabolite data: S-Adenosyl-L-Homocysteine / Metabolite data: 1_3-Bisphosphoglyceric acid: scale not given here
Procedure: The metabolite extraction protocol was performed as described elsewhere ([Allman et al., 2016]). Briefly, 1 mL of trophozoites that were magnetically purified to a concentration of 1×10^8 parasites/mL were placed into wells with 4 mL of RPMI 1640 media and allowed to recover for one hour. […] The culture was incubated for another 2.5 hr. The culture was centrifuged and quenched with 90% methanol containing 0.25 μM ^13C,^15N-Labeled-Aspartate, vortexed, and centrifuged. The supernatant was transferred to a new tube and dried for storage. Prior to analysis, the samples were resuspended to a final concentration of 1×10^8 parasites/mL in a solution of 3% methanol:water containing 1 μM chlorpropamide as an internal standard.
The chromatographic conditions used in this experiment were performed with slight modifications from previous methods ([Zhang et al., 2018]). Briefly, a Waters XSelect HSS C18 column was used on a gradient reverse-phase chromatographic configuration with 97:3 water:methanol with 10 mM tributylamine and 15 mM acetic acid (solvent A) and methanol (solvent B). A Thermo-Scientific Exactive Plus Orbitrap mass spectrometer was operated in negative mode for the detection of the metabolites. Peak picking and integration were performed using El-Maven LC/MS data processing software. The peak data were then exported to Excel where metabolite areas were normalized to the internal standards, blank subtracted, and averaged by condition.

C[C@H]1Cc2c([nH]c3cc(Cl)c(F)cc23)[C@@]2(N1)C(=O)Nc1ccc(Cl)cc12 [NITD609]
Metabolite data: 1_3-Bisphosphoglyceric acid: 0
Metabolite data: 2_3-Diphosphoglyceric acid: -2.22
Metabolite data: 3-Phosphoglycerate: 0.01
Metabolite data: 4-Aminobutyrate: -0.54
Metabolite data: 4-Phosphopantothenate: -0.15
Metabolite data: 4-phosphopantetheine: 0
Metabolite data: 5-aminopentanoic acid: 0
Metabolite data: 5-phosphoribosyl-1-pyrophosphate: 0
Metabolite data: 6-Phospho-D-Gluconate: -0.28
Metabolite data: ADP-D-Glucose: 0.02
Metabolite data: Acetyl-CoA: -0.54
Metabolite data: Acetyllysine: -1.93
Metabolite data: Aconitate: 0.62
Metabolite data: CDP: -0.29
Metabolite data: CDP-Ethanolamine: -0.28
Metabolite data: CDP-choline: 0
Metabolite data: CMP: 1.24
Metabolite data: CTP: -1.27
Metabolite data: Citrate/Isocitrate: 0.19
Metabolite data: Cyclic-AMP: -1.16
Metabolite data: Dihydroorotate: -2.01
Metabolite data: FAD: -1.31
Metabolite data: FMN: -1
Metabolite data: Fructose-1,6-Bisphosphate: -1.13
Metabolite data: Fumarate: -0.06
Metabolite data: GDP: -2.58
Metabolite data: GMP: -2.42
Metabolite data: GTP: -1.11
Metabolite data: Glucose-1/6-Phosphate: -0.9
Metabolite data: Glutathione Disulfide: -0.38
Metabolite data: Hexose: 0
Metabolite data: Hydroxyisocaproic acid: 0
Metabolite data: Indole: 0.17
Metabolite data: Ketoleucine: 0
Metabolite data: L-arginino-succinate: 0
Metabolite data: Lactate: -1.31
Metabolite data: Malate: -0.06
Metabolite data: Myo-Inositol: -3.27
Metabolite data: N-Acetyl-Glutamate: -0.27
Metabolite data: N-Acetyl-L-Alanine: -1.42
Metabolite data: N-Acetyl-L-Ornithine: -1.27
Metabolite data: N-Carbamoyl-L-Aspartate: -4.57
Metabolite data: NAD+: -0.4
Metabolite data: NADH: 0.03
Metabolite data: NADP+: -0.12
Metabolite data: NADPH: 0.35
Metabolite data: Nicotinate: 0.78
Metabolite data: Octulose 8/1-Phosphate: -1.92
Metabolite data: Orotate: 0.91
Metabolite data: PD: 0
Metabolite data: PE: 0
Metabolite data: PEEK: 0
Metabolite data: Phenol Red: 0
Metabolite data: Pyroglutamic acid: -0.06
Metabolite data: S-Adenosyl-L-Homocysteine: -1.64
Metabolite data: S-methyl-5'-thioadenosine: -0.53
Metabolite data: SD: 0
Metabolite data: Sedoheptulose Bisphosphate: -1.34
Metabolite data: UDP: -0.96
Metabolite data: UDP-D-Glucose: -0.2
Metabolite data: UDP-D-Glucuronate: -0.36
Metabolite data: UDP-N-Acetyl-Glucosamine: 0.03
Metabolite data: UMP: -0.38
Metabolite data: UTP: -2.05
Metabolite data: a-ketoglutarate: 0.5
Metabolite data: acetyl-aspartate: 0
Metabolite data: arginine: 0
Metabolite data: asparagine: 0
Metabolite data: aspartate: 0
Metabolite data: biotin: 0
Metabolite data: chlorpropamide: 0
Metabolite data: coenzyme A: 0
Metabolite data: dAMP: 2.56
Metabolite data: dATP: -0.71
Metabolite data: dCDP: 1.68
Metabolite data: dCMP: 1.5
Metabolite data: dCTP: 0.45
Metabolite data: dGDP/ADP: 0
Metabolite data: dGMP/AMP: -1.14
Metabolite data: dGTP/ATP: 0
Metabolite data: dTDP: 2.45
Metabolite data: dTMP: 3.96
Metabolite data: dTTP: 1.4
Metabolite data: folate: 0
Metabolite data: glucono-lactone: 0
Metabolite data: glutamate: 0
Metabolite data: glutamine: 0
Metabolite data: glutathione: 0
Metabolite data: histidine: 0
Metabolite data: hydroxyproline/Aminolevulinate: 0
Metabolite data: isoleucine: 0
Metabolite data: leucine: 0
Metabolite data: maleic acid: 0
Metabolite data: methionine: 0
Metabolite data: nicotinamide mononucleotide: 0
Metabolite data: orotidine-5'-phosphate: 0
